# Measurements: US9018176B2, “Inducers of hematopoiesis and fetal globin production for treatment of cytopenias and hemoglobin disorders” (priority 2010, dated 2015)
# How the values were obtained:
# [1] = test system: γ-globin mRNA; assay: γ-globin mRNA gene expression in K562 cells; format: cell-based
# [2] = test system: γ-globin gene promoter; assay: Dual luciferase reporter assay (μLCRβprRlucAγprFluc cassette) in GM979 cells; format: cell-based; conditions: Resveratrol at 10 μM, MS-275 at 5 μM
# Excerpt: Cell-based screen for γ-globin inducing compounds in GM979 cells (Skarpidi, et al. Blood 2000; 96:321-326). Mini-gene construct integrated into GM979 cell genome. The readout is Firefly/Renilla luciferase ratio, and is designed to identify only strong inducers of the γ-globin promoter, and specificity for the γ- vs. the […]γ-globin gene. This second assay confirmed 12/15 candidates.
# This assay is […], and consists of a dual-luciferase reporter construct containing the LCR and the […] luciferase and the Aγ-globin promoter linked to firefly luciferase (μLCRβprRlucAγprFluc cassette), stably-transfected into GM979 cells. The orientation of the promoters and μLCR allowed detection only of strong, specific inducers of the γ-globin gene promoter. This assay is also been predictive of in vivo HbF-inducing activity.
# The γ-globin-specificity of hits was determined in a secondary assay employing a stably-transfected dual-luciferase reporter construct containing the LCR and the β-globin promoter linked to renilla luciferase and the Aγ-globin promoter linked to firefly luciferase (μLCRβprRlucAγprFluc cassette) (FIG. 2B).
# [3] = test system: CB BFU-E cells; assay: CB BFU-E cell proliferation (cells/colony); conditions: FIG. 8
# Procedure: Fetal globin-inducing activity in human erythroid progenitors was assessed. Human erythroid progenitors were cultured from peripheral blood samples, exposed to the test compounds at varying concentrations and for varying durations and analyzed for globin chain mRNA ratios. Erythroid progenitors were cultured from cord blood CD34+ cells. Briefly, CD34+ cells in the human cord blood were separated using a Ficoll-paque density gradient. CD34+ cells were cultured in H4230 medium containing 2 mM L-glutamine, 1% Methylcellulose in Iscove's Medium, 30% Fetal Bovine Serum, 1% Bovine Serum Albumin and 10^-4 M β-mercaptoethanol. Methylcellulose H4230 medium was supplemented with EPO (0.5 U/ml) and IL-3 (20 ng/ml) to support BFU-e growth. Cells were cultured in […] mini-dishes and incubated in a humidified atmosphere containing 5% CO2, at 37° C. Different concentrations of the test compounds were added at the time the cultures were established. Each compound was tested in three different cultures. BFU-e colonies grown in mini-dishes were counted on day 14 and harvested for mRNA analysis.
# [4] = test system: γ-globin mRNA; assay: γ-globin mRNA in cultured primary human erythroid progenitors (BFU-e), real-time PCR; format: cell-based; conditions: Resveratrol 0.2 uM
# [5] = test system: histone deacetylases; assay: Histone deacetylase inhibition
# [6] = test system: γ-globin mRNA; assay: γ-globin mRNA in cultured primary human erythroid progenitors (BFU-e), real-time PCR; format: cell-based
# Procedure: Erythroid progenitors were cultured from cord blood CD34+ cells. […] Each compound was tested in three different cultures. […] On day 14, RNA was extracted from cultured erythroid cells, and relative quantification PCR was performed. Briefly, cDNA was generated from equal amounts of total RNA extracted using The PerfectPure RNA Purification Kit (5 Prime Inc Gaithersburg, Md.). Real-time PCR was performed using an ABI 7500 Real-Time PCR system (Applied Biosystems, Foster City, Calif.). Levels of globin mRNA were calculated by the ΔΔCt method. […] GAPDH levels were used for standardization. Western blotting Nuclear extract of K562 cells and 14-day-old BFU-e were analyzed by electrophoresis using 5-24% gradient SDS-polyacrylamide mini-gels (BIORAD Laboratories. Hercules Calif.). Proteins in the gels were transferred to Immobilon-P membranes. Blots were then incubated with BCL11A polyclonal (Novus Biologicals, Littleton Co) or mouse monoclonal (Santa Cruz Biotechnology, Santa Cruz Calif.) antibodies, after washing blots were incubated with anti-rabbit IgG-horseradish peroxidase secondary antibody (ECL, Little Chalfont Buckinghamshire UK). BCL11A bands were detected on the X-ray film using Western Lightning Reagents (Perking Elmer Inc, Waltham, Mass.).
# [7] = Hemoglobin disorder progenitors
smiles,measurement,setting,value
"Oc1ccc(C=Cc2cc(O)cc(O)c2)cc1 [Resveratrol, resveratrol]",concentration giving the most γ-globin mRNA expression,"[1]; FIG. 5, K562 cells, tested Desloratadine 10 μM-100 μM, Resveratrol 5 μM-30 μM, NSC 1 μM-50 μM",30 µM
same,% induction of γ-globin mRNA gene expression,"[1]; FIGS. 4A and 4B, K562 cells, Resveratrol 30 μM, desloratadine 50 μM, NSC 50 μM, Benserazine 5 μM",most significant % increase
same,activity compared with sodium Butyrate,"[2]; Ambroxol at 1 μM, Desloratadine at 1 μM, Benserazide at 0.03 μM (or a range of 30 nM-5 μM), NSC-95397 at 1 μM, versus sodium Butyrate at 2000 μM",significantly more active
same,most active at inducing γ-globin mRNA expression,[2]; Benserazide at 0.03 μM,most active
same,number of blood cells per colony,[3],increase the number of blood cells per colony
same,cytotoxicity / inhibition of erythroid cell proliferation,"[3]; Desloratadine 1 μM-10 μM, Resveratrol 0.05 μM-5 μM, Benserazide 0.1 μM-10 μM",non-cytotoxic
same,"fetal globin mRNA, Mean",[4]; Cord Blood progenitors,217 % of control
same,responses (cultures with induced fetal globin mRNA),[4]; Cord Blood progenitors,5/5
same,"fetal globin mRNA, Mean",[4]; [7],245 % of control
same,responses (cultures with induced fetal globin mRNA),[4]; [7],1/2
same,"fetal globin mRNA, Mean",[4]; Normal progenitors,122 % of control
same,responses (cultures with induced fetal globin mRNA),[4]; Normal progenitors,1/2
same,concentration that inhibits histone deacetylases,[5],0.05 µM
same,% induction of γ-globin mRNA gene expression,"[6]; FIG. 4C, HFU-E (burst-forming units-erythroid) cells, Resveratrol 30 μM, desloratadine 50 μM, NSC 50 μM, Benserazine 5 μM",most significant % increase
same,γ-globin mRNA induction,"[6]; cultured primary human erythroid progenitors, concentrations pharmacologically achievable in humans",up to 3 fold
same,concentrations that induce fetal globin (HbF) mRNA,[6]; primary erythroid progenitors in vitro,0.05 µM
